# pIC50: −log10 of the molar value.
# Legend:
# [1] = system: Mycolicibacterium smegmatis; experiment: Potentiation of cefotaxime-induced antibacterial activity against Mycobacterium smegmatis assessed as cefotaxime MIC incubated for 48 hrs by alamar blue assay (reference value: 64 ug/ml); assay type: functional
# [2] = system: Mycobacterium tuberculosis; experiment: Anti-mycobacterial activity against Mycobacterium tuberculosis H37Rv assessed as bacterial growth inhibition incubated for 7 days by REMA assay; assay type: functional; settings: 168 h, time 7 day
# Staphylococcus aureus [3] = experiment: Antibacterial activity against Staphylococcus aureus assessed as bacterial growth inhibition incubated for 18 to 24 hrs by broth microdilution assay; assay type: functional; settings: time 18-24 hrs
# Escherichia coli [4] = experiment: Antibacterial activity against Escherichia coli assessed as bacterial growth inhibition incubated for 18 to 24 hrs by broth microdilution assay; assay type: functional; settings: time 18-24 hrs
# Staphylococcus aureus [5] = experiment: Antibacterial activity against methicillin-resistant Staphylococcus aureus ATCC 33591 assessed as bacterial growth inhibition by CLSI based broth microdilution method; assay type: functional
# [6] = system: Mycobacterium tuberculosis; experiment: Anti-mycobacterial activity against Mycobacterium tuberculosis H37Rv ATCC […] assessed as bacterial growth inhibition by alamar blue assay; assay type: functional
# Escherichia coli [7] = experiment: Antibacterial activity against Escherichia coli assessed as bacterial growth inhibition incubated for 24 hrs; assay type: functional
# Clostridioides difficile = experiment: Antibacterial activity against Clostridium difficile assessed as bacterial growth inhibition incubated for 24 hrs; assay type: functional
# Staphylococcus aureus [8] = experiment: Antibacterial activity against methicillin-resistant Staphylococcus aureus assessed as bacterial growth inhibition; assay type: functional
# Escherichia coli [9] = experiment: Antibacterial activity against Escherichia coli assessed as bacterial growth inhibition; assay type: functional
# Pseudomonas aeruginosa = experiment: Antibacterial activity against Pseudomonas aeruginosa assessed as bacterial growth inhibition; assay type: functional
# Klebsiella pneumoniae = experiment: Antibacterial activity against Klebsiella pneumoniae assessed as bacterial growth inhibition; assay type: functional
# Enterococcus faecalis = experiment: Antibacterial activity against vancomycin-resistant Enterococcus faecalis assessed as bacterial growth inhibition; assay type: functional
# [10] = system: Staphylococcus epidermidis; experiment: Antibacterial activity against methicillin-resistant Staphylococcus epidermidis assessed as bacterial growth inhibition; assay type: functional
# Staphylococcus aureus [11] = experiment: Antibacterial activity against Staphylococcus aureus assessed as bacterial growth inhibition incubated for 24 hrs; assay type: functional
# [12] = Inhibition of Mycobacterium smegmatis biofilm fromation incubated for 48 hrs by crystal violet staining based analysis; assay type: functional, Mycolicibacterium smegmatis
# Plasmodium falciparum = experiment: Antiplasmodial activity against Plasmodium falciparum; assay type: functional, organism-based
# [13] = system: Mycobacterium tuberculosis; experiment: Potentiation of isoniazid-induced antimycobacterial activity against Mycobacterium tuberculosis H37Rv assessed as reduction in isoniazid MIC at 250 uM incubated for 48 hrs by alamar blue staining based analysis; assay type: functional
# [14] = system: Mycobacterium tuberculosis; experiment: Potentiation of isoniazid-induced antimycobacterial activity against Mycobacterium tuberculosis H37Rv assessed as reduction in isoniazid MIC at 125 uM incubated for 48 hrs by alamar blue staining based analysis; assay type: functional
# Nakaseomyces glabratus [15] = experiment: Synergistic antifungal activity against Candida glabrata assessed as fractional inhibitory concentration index in presence of voriconazole incubated for 18 hrs by checkerboard assay; assay type: functional
# Nakaseomyces glabratus [16] = experiment: Synergistic antifungal activity against Candida glabrata assessed as fractional inhibitory concentration index in presence of fluconazole incubated for 18 hrs by checkerboard assay; assay type: functional
# Nakaseomyces glabratus [17] = experiment: Synergistic antifungal activity against Candida glabrata assessed as fractional inhibitory concentration index in presence of amphotericin incubated for 18 hrs by checkerboard assay; assay type: functional
# [18] = system: Mycobacterium tuberculosis; experiment: Anti-mycobacterial activity against Mycobacterium tuberculosis H37Rv assessed as growth inhibition incubated for 48 hrs by alamar blue staining based analysis; assay type: functional
smiles,measurement,setting,value
CCCCCCCC(NC(=O)CCCc1c[nH]c(N)n1)c1ccccc1 (stereo unspecified),MIC,[1],2 µg/mL
COc1ccc(C2C(C(C)=O)=C(C)Nc3nc(N)[nH]c(=O)c32)cc1OC (stereo unspecified),MIC,[2],1.95 µg/mL
N=C(N)NCCNC(=O)[C@H](Cc1c[nH]c2ccccc12)NC(=O)c1cc(Br)ccc1NC(=O)c1ccc2ccccc2c1,MIC,Staphylococcus aureus [3],2 µM
same,MIC,Escherichia coli [4],15.6 µM
N=C(N)NC[C@H]1OC(O[C@@H]2[C@@H](O)[C@H](O[C@H]3O[C@H](CN)[C@@H](O)[C@H](O)[C@H]3O)[C@@H](N)C[C@H]2N)[C@H](O)[C@@H](N)[C@@H]1O (stereo partly specified),MIC,Staphylococcus aureus [5],3.12 µg/mL
Cc1nn(-c2ccccc2)c(Cl)c1-c1nc(N)nc2c1c(C)nn2-c1ccccc1Cl,MIC,[6],1.2 µg/mL
COC(=O)C(CCCCNC(=N)N)NC(=O)C(=O)c1cc(Br)ccc1NC(=O)c1ccc2ccccc2c1.Cl (stereo unspecified),MIC,Escherichia coli [7],19 µg/mL
CCCCCCN1C(=N)N(CC(=O)Nc2cccc(NC(=O)CN3C[C@H](Cc4ccccc4)N(CCCCCC)C3=N)c2)C[C@@H]1Cc1ccccc1,MIC,Clostridioides difficile,1 µg/mL
same,MIC,Staphylococcus aureus [8],0.16 µg/mL
same,MIC,Escherichia coli [9],0.75 µg/mL
same,MIC,Pseudomonas aeruginosa,4 µg/mL
same,MIC,Klebsiella pneumoniae,0.75 µg/mL
same,MIC,Enterococcus faecalis,0.75 µg/mL
same,MIC,[10],0.75 µg/mL
COC(=O)C(CCCNC(=N)N)NC(=O)C(CCCCNC(=N)N)NC(=O)C(=O)c1cc(Br)ccc1NC(=O)c1ccc2ccccc2c1.Cl.Cl (stereo unspecified),MIC,Staphylococcus aureus [11],10 µg/mL
CCCCCOc1ccc(-c2nc(N)[nH]c2C(F)(F)F)cc1,pIC50,[12],> 5.00
CCC/C=C\CCC[C@@H]1C2N=C(N)N[C@H]3CC[C@@H](C[C@H]1CCC)C23 (stereo partly specified),pIC50,Plasmodium falciparum,5.08
N=C(N)NCCNC(=O)[C@H](Cc1c[nH]c2ccccc12)NC(=O)c1cc(F)ccc1NC(=O)c1ccc2ccccc2c1,MIC,Staphylococcus aureus [3],2 µM
CCCCCCc1ccc(-c2nc(N)[nH]c2C(F)(F)F)cc1,pIC50,[12],> 5.00
CCCCCCC(CCCCCC)NC(=O)CCCc1c[nH]c(N)n1,MIC,[13],0.039 µg/mL
same,MIC,[14],0.039 µg/mL
CCCCNC(=N)NC(=N)N [BUFORMIN],fractional inhibitory concentration index (FICI),Nakaseomyces glabratus [15],0.5
same,fractional inhibitory concentration index (FICI),Nakaseomyces glabratus [16],0.5
same,fractional inhibitory concentration index (FICI),Nakaseomyces glabratus [17],0.5
NNC(=O)c1ccncc1 [ISONIAZID],MIC,[18],0.625 µg/mL
CN(C)C(=N)NC(=N)N [METFORMIN],fractional inhibitory concentration index (FICI),Nakaseomyces glabratus [15],0.5
same,fractional inhibitory concentration index (FICI),Nakaseomyces glabratus [16],0.5
same,fractional inhibitory concentration index (FICI),Nakaseomyces glabratus [17],0.5
N=C(N)NC(=N)NCCc1ccccc1 [PHENFORMIN],fractional inhibitory concentration index (FICI),Nakaseomyces glabratus [15],0.5
same,fractional inhibitory concentration index (FICI),Nakaseomyces glabratus [16],0.5
same,fractional inhibitory concentration index (FICI),Nakaseomyces glabratus [17],0.5

# Source: ChEMBL document CHEMBL5149974, “Antimicrobial drugs bearing guanidine moieties: A review” (Eur J Med Chem, 2021)
